In PubChem BioAssay (NCI) one finds GI50 and TGI data, which are given here for 12 compounds.

Among the test systems are HCT-15 colon; CCRF-CEM leukemia; MCF7 breast; UACC-257 melanoma; MALME-3M melanoma; PC-3 prostate; HOP-62 NSCLC; U251 CNS; DLD-1 colon; DMS 273 small cell lung.
Common to all, as to test: NCI tumour cell line growth inhibition, 48 h

Each structure is given as a SMILES string.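 Cells were grown in 96-well plates and exposed to each compound for 48 hours at five concentrations; endpoints were interpolated linearly between bracketing concentrations, or set to the highest concentration if not reached. Here, GI50 denotes the concentration required for 50% inhibition of growth. TGI: concentration producing complete growth inhibition.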

For `COc1cc2c(cc1OCCCn1c(-c3ccccn3)nc3ccccc31)N=C[C@@H]1CCCN1C2=O`, the GI50 in the assay on HCT-15 colon is 2.5 µM; in the assay on CCRF-CEM leukemia, 15.7 µM; with MCF7 breast, 0.632 µM; in the assay with UACC-257 melanoma it was 2.11 µM; in the assay with MALME-3M melanoma it was 5.32 µM; with PC-3 prostate, 1.44 µM. Besides, the values for the GI50 in the assay on HOP-62 NSCLC and with U251 CNS were 2.92 µM and 2.37 µM, respectively. Further, the TGI in the assay with HCT-15 colon was 9.92 µM; in the assay with CCRF-CEM leukemia, over 25 µM; in the assay on MCF7 breast, 3.47 µM; in the assay with UACC-257 melanoma, 9.42 µM; in the assay with MALME-3M melanoma, 11 µM; in the assay with PC-3 prostate, over 30.6 µM. Further, the TGI in the assay with HOP-62 NSCLC worked out at 9.57 µM; in the assay with U251 CNS, 11.4 µM.

On to `O=C(NC1CCCCC1)NS(=O)(=O)c1ccc2c(c1)CCC2`, for which the TGI in the assay on HCT-15 colon, in the assay on CCRF-CEM leukemia, with UACC-257 melanoma, in the assay with DLD-1 colon, with MALME-3M melanoma and with U251 CNS was over 100 µM each time.

For `CCN(CC)CC1c2ccccc2C(CNc2ccccc2)N1C` (configuration not stated), the TGI in the assay with HCT-15 colon, in the assay on CCRF-CEM leukemia, with DMS 273 small cell lung, in the assay with UACC-257 melanoma, with DLD-1 colon and in the assay on MALME-3M melanoma was over 100 µM each time. For the same compound, the TGI in the assay on HOP-62 NSCLC is over 100 µM.

As for `O=c1[nH]c(=O)n(C2CC(O)C(COP(=O)(OCc3ccc([N+](=O)[O-])o3)N(CCCCCl)CC(O)CO)O2)cc1F` (configuration not stated), the GI50 was 4.53 µM in the assay on HCT-15 colon; 0.0102 µM in the assay with CCRF-CEM leukemia; under 0.01 µM with MCF7 breast; 0.0213 µM in the assay with UACC-257 melanoma; 0.207 µM in the assay with MALME-3M melanoma; 0.154 µM with PC-3 prostate. Besides, the GI50 in the assay with HOP-62 NSCLC is 0.412 µM. Moreover, the TGI in the assay on HCT-15 colon was over 100 µM; with CCRF-CEM leukemia, over 100 µM; in the assay on MCF7 breast it was over 100 µM; in the assay with UACC-257 melanoma, 0.852 µM; in the assay on MALME-3M melanoma it was over 29.9 µM; in the assay with PC-3 prostate, over 100 µM. In addition, the TGI in the assay with HOP-62 NSCLC is over 26.2 µM; in the assay on U251 CNS it was over 100 µM.

As for `COC1C=COC2(C)Oc3c(C)c(O)c4c(c3C2=O)/C(=N/C2CCC(O)OC2C)C=C(NC(=O)/C(C)=C\C(=O)C2CC2C(O)C(C)C(O)C(C)C(OC(C)=O)C1C)C4=O` (configuration not stated), the TGI in the assay on HCT-15 colon stood at 9.79 µM; in the assay with CCRF-CEM leukemia, 10.9 µM; in the assay with MCF7 breast it was 4.74 µM; in the assay on UACC-257 melanoma, 5.98 µM; in the assay with MALME-3M melanoma, 3.36 µM; with PC-3 prostate, 6.56 µM. Besides, the TGI came to 8.75 µM with HOP-62 NSCLC and 8.3 µM in the assay on U251 CNS.

In the case of `OCc1ccc(N2CCCC2c2ccccc2)cc1Cl` (configuration not stated), the GI50 in the assay with HCT-15 colon was 4.24 µM; in the assay on CCRF-CEM leukemia, 6.44 µM; with MCF7 breast, 1.42 µM; in the assay on UACC-257 melanoma, 0.544 µM; with MALME-3M melanoma it was 9.73 µM; with PC-3 prostate, 8.41 µM. The GI50 with HOP-62 NSCLC is 3.69 µM; in the assay on U251 CNS, 2.35 µM. Moreover, the TGI in the assay on HCT-15 colon came to 20 µM; in the assay with CCRF-CEM leukemia, 39.7 µM; with MCF7 breast, 13.2 µM; with UACC-257 melanoma it was 2.11 µM; in the assay on MALME-3M melanoma, 28.2 µM; in the assay on PC-3 prostate it was 29 µM. Further, the TGI in the assay with HOP-62 NSCLC stood at 15.8 µM; with U251 CNS, 13.3 µM.

Consider `COc1ccc(C=O)c([N+](=O)[O-])c1`, for which the TGI was over 100 µM in the assay on HCT-15 colon; 76.3 µM in the assay with CCRF-CEM leukemia; 95.1 µM in the assay on DMS 273 small cell lung; over 100 µM in the assay with UACC-257 melanoma; over 100 µM in the assay on MALME-3M melanoma; over 100 µM in the assay on HOP-62 NSCLC. The TGI in the assay with U251 CNS is over 100 µM.

Turning to `COc1ccc(-c2cc(-c3ccc(C)cc3)nc3nc(=S)[nH]c(N)c23)cc1`, the GI50 with HCT-15 colon is 23.9 µM; in the assay with CCRF-CEM leukemia, 18.8 µM; in the assay on MCF7 breast it was 15.8 µM; with UACC-257 melanoma, 22.8 µM; with MALME-3M melanoma it was 26.7 µM; in the assay with PC-3 prostate, 37.7 µM. The results for the GI50 with HOP-62 NSCLC and with U251 CNS were 18.8 µM and 15.2 µM, respectively. Also, the TGI in the assay with HCT-15 colon was 64.4 µM; in the assay with CCRF-CEM leukemia, 64.8 µM; in the assay on MCF7 breast it was 69.4 µM; with UACC-257 melanoma it was 45.3 µM; with MALME-3M melanoma it was 43.3 µM; in the assay on PC-3 prostate, over 100 µM. Further, the TGI with HOP-62 NSCLC turned out to be 40.6 µM; with U251 CNS it was 29.3 µM.

For the compound `CC(=O)/C=C/c1cn(C(=O)OC(C)(C)C)c2ccc(Br)cc12`, the GI50 in the assay on HCT-15 colon is 20.9 µM; with CCRF-CEM leukemia, 1.07 µM; in the assay on MCF7 breast it was 9.71 µM; in the assay with UACC-257 melanoma, over 70.3 µM; with MALME-3M melanoma, 52.1 µM; in the assay on PC-3 prostate, 18.2 µM. Further, the values for the GI50 in the assay on HOP-62 NSCLC and in the assay on U251 CNS were 15.8 µM and 12.5 µM, respectively. Moreover, the TGI was over 100 µM with HCT-15 colon; over 100 µM in the assay on CCRF-CEM leukemia; 46.5 µM in the assay on MCF7 breast; over 100 µM with UACC-257 melanoma; over 89.2 µM in the assay on MALME-3M melanoma; over 79.2 µM in the assay on PC-3 prostate. Besides, the TGI in the assay with HOP-62 NSCLC was found to be 30.4 µM; with U251 CNS, 25.5 µM.

Turning to `CCC(=O)C12OC3OC(C)(C)OC3C1OC(C)(C)O2` (configuration not stated), the TGI with CCRF-CEM leukemia, in the assay with DMS 273 small cell lung, with UACC-257 melanoma, in the assay on DLD-1 colon, with MALME-3M melanoma and in the assay with HOP-62 NSCLC was over 100 µM throughout. This compound had a TGI in the assay with U251 CNS of over 100 µM.

With `CC#CCC1CCC(OCC)=CC1=O` (configuration not stated), the TGI with HCT-15 colon, in the assay with CCRF-CEM leukemia, in the assay on DMS 273 small cell lung, with UACC-257 melanoma, in the assay with DLD-1 colon and in the assay on HOP-62 NSCLC was over 100 µM throughout. Also, the TGI in the assay on U251 CNS was over 100 µM.

For `CCOc1ccccc1C(=O)N1CCN(c2cc(Cl)cc(Cl)c2)CC1`, the GI50 is 0.0322 µM with HCT-15 colon; 0.0357 µM in the assay with CCRF-CEM leukemia; 0.0321 µM in the assay on MCF7 breast; 4.19 µM in the assay on UACC-257 melanoma; 0.624 µM in the assay with MALME-3M melanoma; 0.0346 µM in the assay with PC-3 prostate. For the same compound, the GI50 was 0.0416 µM in the assay on HOP-62 NSCLC and 0.0407 µM in the assay on U251 CNS. In addition, the TGI in the assay with HCT-15 colon was 10.9 µM; in the assay with CCRF-CEM leukemia it was 33.5 µM; in the assay with MCF7 breast, 12.2 µM; in the assay on UACC-257 melanoma, 25.8 µM; in the assay on MALME-3M melanoma, 22.9 µM; with PC-3 prostate, 12.6 µM. The TGI with HOP-62 NSCLC stood at 15.8 µM; in the assay on U251 CNS, 14.3 µM.
